# From the supplement of paper PMC6045584
# ± gives the standard deviation of the averaged measurements.
# Assays:
# SAPACITABINE [1] = compound: T1, CCCCCCCCCCCCCCCC(=O)Nc1ccn([C@@H]2O[C@H](CO)[C@@H](O)[C@@H]2C#N)c(=O)n1 [SAPACITABINE]; assay: area under dose-response curve of surviving fraction (unscaled, Aref=0) (surviving fraction x log10(nM)); higher = more resistant; conditions: exposure time: 5 days; dose range 0.5-1000 nM
# In short: (§1)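 Three screens per tumour cell line were run in 384-well plates at eight inhibitor concentrations from 0.5 to 1000 nM over five days. Surviving fractions, from CellTiter-Glo luminescence normalised to DMSO-only wells, were fitted with 3-parameter logistic curves in the drc R package. The reported area under the curve is the unscaled activity area. It spans log10 dose, and Aref is 0.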
# [2] = compound: Cn1cc(C2=Nc3cc(NC(=O)C(N)C4CCCCC4)cc4c3C2=CNNC4=O)cn1; assay: as above; conditions: exposure time: 5 days; dose range 0.5-1000 nM
# In short: as §1
# CANERTINIB [3] = compound: T2, C=CC(=O)Nc1cc2c(Nc3ccc(F)c(Cl)c3)ncnc2cc1OCCCN1CCOCC1 [CANERTINIB]; assay: as above; conditions: exposure time: 5 days; dose range 0.5-1000 nM
# In short: as §1
# MDV3100 [4] = compound: T3, CNC(=O)c1ccc(N2C(=S)N(c3ccc(C#N)c(C(F)(F)F)c3)C(=O)C2(C)C)cc1F [MDV3100]; assay: as above; conditions: exposure time: 5 days; dose range 0.5-1000 nM
# In short: as §1
# BI-2536 [5] = compound: T4, CC[C@@H]1C(=O)N(C)c2cnc(Nc3ccc(C(=O)NC4CCN(C)CC4)cc3OC)nc2N1C1CCCC1 [BI-2536]; assay: as above; conditions: exposure time: 5 days; dose range 0.5-1000 nM
# In short: as §1
# TIOGUANINE [6] = compound: T5, Nc1nc2[nH]cnc2c(=S)[nH]1 [TIOGUANINE]; assay: as above; conditions: exposure time: 5 days; dose range 0.5-1000 nM
# In short: as §1
# SNX-5422 [7] = compound: T6, CC1(C)CC(=O)c2c(C(F)(F)F)nn(-c3ccc(C(N)=O)c(N[C@H]4CC[C@H](OC(=O)CN)CC4)c3)c2C1 [SNX-5422]; assay: as above; conditions: exposure time: 5 days; dose range 0.5-1000 nM
# In short: as §1
# AFATINIB = compound: CN(C)C/C=C/C(=O)Nc1cc2c(Nc3ccc(F)c(Cl)c3)ncnc2cc1O[C@H]1CCOC1 [AFATINIB]; assay: surviving fraction relative to DMSO-only wells; higher = less growth inhibition; conditions: exposure time: 5 days
# In short: (§2)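 Viability was scored with CellTiter-Glo luminescence and normalised to the median of DMSO-only wells as surviving fraction. Beforehand, log-phase tumour cell lines were seeded at 250–500 cells per well in 384-well plates, allowed 24 hours, and exposed continuously for five days to inhibitors at 0.5, 1, 5, 10, 50, 100, 500 and 1000 nM. Only lines whose three screens gave replicate Pearson r >0.7 and median Z' >0.3 were kept.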
# SAPACITABINE [8] = compound: T1, SAPACITABINE; assay: as above; conditions: exposure time: 5 days
# In short: as §2
# [9] = compound: Cn1cc(C2=Nc3cc(NC(=O)C(N)C4CCCCC4)cc4c3C2=CNNC4=O)cn1; assay: as above; conditions: exposure time: 5 days
# In short: as §2
# CANERTINIB [10] = compound: T2, CANERTINIB; assay: as above; conditions: exposure time: 5 days
# In short: as §2
# MDV3100 [11] = compound: T3, MDV3100; assay: as above; conditions: exposure time: 5 days
# In short: as §2
# BI-2536 [12] = compound: T4, BI-2536; assay: as above; conditions: exposure time: 5 days
# In short: as §2
# TIOGUANINE [13] = compound: T5, TIOGUANINE; assay: as above; conditions: exposure time: 5 days
# In short: as §2
# SNX-5422 [14] = compound: T6, SNX-5422; assay: as above; conditions: exposure time: 5 days
# In short: as §2
test system,measurement,setting,value
SUM149.B1*.S BREAST,area under dose-response curve,SAPACITABINE [1],1.89
same,area under dose-response curve,[2],3.05
same,area under dose-response curve,CANERTINIB [3],3
same,area under dose-response curve,MDV3100 [4],2.91
same,area under dose-response curve,BI-2536 [5],2
same,area under dose-response curve,TIOGUANINE [6],3.25
same,area under dose-response curve,SNX-5422 [7],2.31
same,surviving fraction,AFATINIB; 0.5 nM,1.11 ± 0.014
same,surviving fraction,AFATINIB; 1 nM,1.11 ± 0.061
same,surviving fraction,AFATINIB; 5 nM,1.05 ± 0.02
same,surviving fraction,AFATINIB; 10 nM,1.05 ± 0.037
same,surviving fraction,AFATINIB; 50 nM,0.966 ± 0.03
same,surviving fraction,AFATINIB; 100 nM,0.972 ± 0.045
same,surviving fraction,AFATINIB; 500 nM,0.916 ± 0.022
same,surviving fraction,AFATINIB; 1000 nM,0.798 ± 0.044
same,surviving fraction,SAPACITABINE [8]; 0.5 nM,0.918 ± 0.067
same,surviving fraction,SAPACITABINE [8]; 1 nM,0.792 ± 0.011
same,surviving fraction,SAPACITABINE [8]; 5 nM,0.888 ± 0.01
same,surviving fraction,SAPACITABINE [8]; 10 nM,0.455 ± 0.022
same,surviving fraction,SAPACITABINE [8]; 50 nM,0.839 ± 0.023
same,surviving fraction,SAPACITABINE [8]; 100 nM,0.567 ± 0.066
same,surviving fraction,SAPACITABINE [8]; 500 nM,0.281 ± 0.022
same,surviving fraction,SAPACITABINE [8]; 1000 nM,0.428 ± 0.022
same,surviving fraction,[9]; 0.5 nM,1.045 ± 0.0088
same,surviving fraction,[9]; 1 nM,1.1 ± 0.025
same,surviving fraction,[9]; 5 nM,1.01 ± 0.057
same,surviving fraction,[9]; 10 nM,1.04 ± 0.033
same,surviving fraction,[9]; 50 nM,1.03 ± 0.062
same,surviving fraction,[9]; 100 nM,0.954 ± 0.03
same,surviving fraction,[9]; 500 nM,0.377 ± 0.0042
same,surviving fraction,[9]; 1000 nM,0.225 ± 0.024
same,surviving fraction,CANERTINIB [10]; 0.5 nM,0.921 ± 0.016
same,surviving fraction,CANERTINIB [10]; 1 nM,0.941 ± 0.015
same,surviving fraction,CANERTINIB [10]; 5 nM,0.933 ± 0.026
same,surviving fraction,CANERTINIB [10]; 10 nM,0.917 ± 0.048
same,surviving fraction,CANERTINIB [10]; 50 nM,0.956 ± 0.028
same,surviving fraction,CANERTINIB [10]; 100 nM,0.972 ± 0.018
same,surviving fraction,CANERTINIB [10]; 500 nM,0.868 ± 0.055
same,surviving fraction,CANERTINIB [10]; 1000 nM,0.805 ± 0.029
same,surviving fraction,MDV3100 [11]; 0.5 nM,0.994 ± 0.02
same,surviving fraction,MDV3100 [11]; 1 nM,0.925 ± 0.017
same,surviving fraction,MDV3100 [11]; 5 nM,0.979 ± 0.063
same,surviving fraction,MDV3100 [11]; 10 nM,0.578 ± 0.014
same,surviving fraction,MDV3100 [11]; 50 nM,1.03 ± 0.04
same,surviving fraction,MDV3100 [11]; 100 nM,0.9605 ± 0.0031
same,surviving fraction,MDV3100 [11]; 500 nM,1.02 ± 0.011
same,surviving fraction,MDV3100 [11]; 1000 nM,0.694 ± 0.049
same,surviving fraction,BI-2536 [12]; 0.5 nM,1.1 ± 0.091
same,surviving fraction,BI-2536 [12]; 1 nM,1.05 ± 0.03
same,surviving fraction,BI-2536 [12]; 5 nM,0.416 ± 0.067
same,surviving fraction,BI-2536 [12]; 10 nM,0.232 ± 0.031
same,surviving fraction,BI-2536 [12]; 50 nM,0.269 ± 0.032
same,surviving fraction,BI-2536 [12]; 100 nM,0.287 ± 0.021
same,surviving fraction,BI-2536 [12]; 500 nM,0.297 ± 0.045
same,surviving fraction,BI-2536 [12]; 1000 nM,0.229 ± 0.03
same,surviving fraction,TIOGUANINE [13]; 0.5 nM,1.02 ± 0.072
same,surviving fraction,TIOGUANINE [13]; 1 nM,1.019 ± 0.0064
same,surviving fraction,TIOGUANINE [13]; 5 nM,1.03 ± 0.016
same,surviving fraction,TIOGUANINE [13]; 10 nM,1.03 ± 0.056
same,surviving fraction,TIOGUANINE [13]; 50 nM,1.02 ± 0.033
same,surviving fraction,TIOGUANINE [13]; 100 nM,1 ± 0.015
same,surviving fraction,TIOGUANINE [13]; 500 nM,0.993 ± 0.022
same,surviving fraction,TIOGUANINE [13]; 1000 nM,0.922 ± 0.033
same,surviving fraction,SNX-5422 [14]; 0.5 nM,1.06 ± 0.037
same,surviving fraction,SNX-5422 [14]; 1 nM,1.12 ± 0.032
same,surviving fraction,SNX-5422 [14]; 5 nM,1.09 ± 0.021
same,surviving fraction,SNX-5422 [14]; 10 nM,1.08 ± 0.037
same,surviving fraction,SNX-5422 [14]; 50 nM,0.385 ± 0.022
same,surviving fraction,SNX-5422 [14]; 100 nM,0.226 ± 0.017
same,surviving fraction,SNX-5422 [14]; 500 nM,0.0997 ± 0.0045
same,surviving fraction,SNX-5422 [14]; 1000 nM,0.0978 ± 0.0067
